Calls of active or inactive are those of the source. No cut-off for these calls is given here.
Key:
[1] = Cytotoxicity against human HKC8 cells assessed as decrease in cell viability at 20 uM after 24 hrs by MTT assay; type: toxicity, cell-based; settings: hkc8, 24 h
HKC8 = assay: Renoprotective activity in human HKC8 cells assessed as inhibition of TGF-beta1-induced fibronectin production preincubated for 1 hr followed by TGF-beta1 induction measured after 24 hrs by solid-phase sandwich ELISA; type: functional, cell-based
[2] = Cytotoxicity against human HKC8 cells assessed as decrease in cell viability at 5 uM after 24 hrs by MTT assay; type: toxicity, cell-based; settings: hkc8, 24 h
[3] = Cytotoxicity against human HKC8 cells assessed as decrease in cell viability at 2.5 uM after 24 hrs by MTT assay; type: toxicity, cell-based; settings: hkc8, 24 h
[4] = Cytotoxicity against human HKC8 cells assessed as decrease in cell viability at 10 uM after 24 hrs by MTT assay; type: toxicity, cell-based; settings: hkc8, 24 h

| Structure (SMILES) | Activity [1] | inhibition (HKC8) | Activity [2] | Activity [3] | Activity [4] |
| --- | --- | --- | --- | --- | --- |
| CC(C)=CCC/C(C)=C/CC/C(=C/Cc1cc2oc(=O)c(CC/C=C(\C)CCC=C(C)C)c(C(=O)c3cc(O)ccc3O)c2cc1O)CO | Toxic | Active | Non-Toxic | – | – |
| CC(C)=CCC/C(C)=C/CC/C(=C/Cc1cc(O)cc2c1oc(=O)c1c(O)ccc(O)c12)C(=O)O | Toxic | Active | – | Non-Toxic | – |
| CC(C)=CCC/C(C)=C/CC/C(=C/Cc1cc(O)cc2c(C(=O)c3cc(O)ccc3O)c(CC/C=C(\C)CCC=C(C)C)c(=O)oc12)CO | Toxic | Active | Non-Toxic | – | – |
| CC(C)=CCC/C(=C/Cc1cc2oc(=O)c3c(O)ccc(O)c3c2cc1O)C(=O)O | Toxic | Active | Non-Toxic | – | – |
| CC(C)=CCC/C(C)=C/CC/C(=C/Cc1cc2oc(=O)c3c(O)ccc(O)c3c2cc1O)CO | Toxic | – | – | Non-Toxic | – |
| CC(C)=CCC/C(C)=C/CC/C(=C/Cc1cc(O)cc2c1oc(=O)c1c(O)ccc(O)c12)CO | Toxic | Active | – | – | Non-Toxic |

Reference: ChEMBL document CHEMBL3864144, “Cochlearoids F-K: Phenolic meroterpenoids from the fungus Ganoderma cochlear and their renoprotective activity” (Bioorg Med Chem Lett, 2016)
